In one experiment the test system is HCV replicon 1B. Nature of the experiment: Cell-based HCV replicon assay, 1B. Conditions: replicon cells, 3 days, replicon RNA by real-time PCR. The protocol: (§1) To measure cell-based anti-HCV activity of selected compounds of the present invention two complimentary assays were employed. In the first assay, replicon cells were seeded at 2000 cells/well in 384-well flat bottom tissue culture treated clear bottom plate (Corning 3707) in the presence of the test compound. Various concentrations of test compound, typically in 10 serial dilutions, were added to the assay mixture, with the starting concentration ranging from 333.3 nM to 1.667 nM. The final concentration of DMSO was 0.5%. Fetal bovine serum was 5%, in the assay media. Cells were harvested on day 3 by removing media and washing the cells with a suitable wash buffer. The cells were lysed with the addition of 1× Qiagen lysis buffer (Cat #1062731). The replicon RNA level was measured using real time PCR (TaqMan® EZ RT-PCR, Applied Biosystems 403028) with the following primers and probes: […]
(§2) Cyclophilin RNA was used as endogenous control and was amplified in the same reaction as NS5B (multiplex PCR). The real-time RT-PCR reactions were run on ABI PRISM 7900HT Sequence Detection System using the following program: 50° C. for 2 minutes, 60° C. for 30 minutes, 95° C. for 5 minutes, 40 cycles of 94° C. for 20 sec, 55° C. for 1 minute.
(§3) The amount of HCV replicon RNA per cell is quantified using a linear regression curve for a known nanogram (ng) amount of HCV replicon total RNA. This is established by plotting the Cycle Threshold values (Ct) from the Neo probe and primer set versus the log (ng) for each HCV replicon total RNA standard. The amount of HCV RNA for each replicon sample is calculated by taking the sample's Ct value, minus the line intercept, divided by the slope of the line. Similarly, the amount of Cyclophilin mRNA per cell is also quantified using a linear regression curve for a known nanogram (ng) amount of HCV replicon total RNA. Again, this is established by plotting the Cycle Threshold values (Ct) from the Cyclophilin probe and primer set versus the log (ng) for each HCV replicon total RNA standard.
(§4) In the alternate assay, 1000 cells were seeded per well in a 384-well collagen coated black plate from Greiner bio-one (Cat #781946) in 5% FBS. Inhibitors of this invention were added at 24 hours post-seeding, and the plates were incubated for 3 days. Cells were subsequently lysed with Qiagen lysis buffer (Cat #1062731) to extract the RNA. HCV replicon RNA level was measured by real-time PCR using the RNA-to-CT kit from Applied Biosystem (Cat #4392656) and genotype-specific primers and probes. The amplicon was located within NS5B. The sequence of the PCR primers were as follows: 5B.2F, ATGGACAGGCGCCCTGA (SEQ. ID NO. 7); 5B.2R, […] (SEQ. ID NO. 8); the probe sequence was FAM-labeled CACGCCATGCGCTGCGG (SEQ. ID NO. 9). To detect genotype 1A the primer 1A F, TGCGGAACCGGTGAGTACA (SEQ ID NO:10) and 1A R, […] (SEQ ID NO: 11) were used; the probe sequence was FAM-[…] (SEQ ID NO:12).
(§5) The real-time RT-PCR reactions were run on ABI PRISM 7900HT or Viia7 Sequence Detection System using the following program: 48° C. for 30 minutes, 95° C. for 10 minutes, 40 cycles of 95° C. for 15 sec, 60° C. for 1 minute. The 50% effective concentration (EC50) was the drug concentration necessary to achieve an increase in the cycle threshold (CT) of 1 over the projected baseline CT. The EC90 was the drug concentration necessary to achieve an increase in CT of 3.2 over the projected baseline CT.

The next experiment concerns HCV replicon 3A. Description: Cell-based HCV replicon assay, 3A. Conditions: replicon cells, 3 days, replicon RNA by real-time PCR. The protocol: as §1, §2, §3, §4, §5
The next experiment deals with HCV replicon 2B. Nature of the experiment: Cell-based HCV replicon assay, 2B. To be noted: replicon cells, 3 days, replicon RNA by real-time PCR. The protocol: as §1, §2, §3, §4, §5
The subject of a further experiment is HCV replicon 1A Y93H. Description: Cell-based HCV replicon assay, 1A Y93H. The protocol: as §1, §2, §3, §4, §5
The next experiment has as its system HCV replicon genotype 1A. Description: Cell-based HCV replicon assay, 1A. Conditions: replicon cells, 3 days, replicon RNA by real-time PCR. The protocol:
as §1, §2, §3, §4, §5

The mark [1] stands for this setting: read-out: 1A Y93H IC50, replicon cells, 3 days, replicon RNA by real-time PCR.
[2] abbreviates: Hepatitis C virus, 72 h, read-out: 1A Y93H IC50 (nM), replicon cells, 3 days, replicon RNA by real-time PCR.

Like-named read-outs stand apart in the source and are kept apart here.

With `COC(=O)N[C@H](C(=O)N1CCC[C@H]1c1ncc(-c2ccc3c(c2)OC(c2ccccc2)C2=C3COc3cc(-c4cnc([C@@H]5CCCN5C(=O)[C@@H](NC(=O)OC)C(C)C)[nH]4)ccc32)[nH]1)C(C)C` (single isomer, unassigned) [Compound 8], the IC50 with HCV replicon 1B was found to be 0.021 nM; in the experiment on HCV replicon 3A, 0.969 nM; in the experiment on HCV replicon 2B, 6.65 nM; in the experiment on HCV replicon 1A Y93H (setting [1]), 20.4 nM; in the experiment with HCV replicon genotype 1A, 0.0337 nM.
In the case of `COC(=O)N[C@H](C(=O)N1CCC[C@H]1c1ncc(-c2ccc3c(c2)OC(c2ccccc2)C2=C3COc3cc(-c4cnc([C@@H]5CCCN5C(=O)[C@@H](NC(=O)OC)C(C)C)[nH]4)ccc32)[nH]1)C(C)C` (single isomer, unassigned) [Compound 9], the concentration for half-maximal inhibition (IC50) came out at 0.0073 nM in the experiment on HCV replicon 1B; 0.172 nM in the experiment on HCV replicon 3A; 1.9 nM in the experiment with HCV replicon 2B; 3.94 nM in the experiment with HCV replicon 1A Y93H (setting [1]); 0.0099 nM in the experiment on HCV replicon genotype 1A.
For `COC(=O)N[C@H](C(=O)N1CCC[C@H]1c1ncc(-c2ccc3c(c2)OC(c2cccc(OC)c2)C2=C3COc3cc(-c4cnc([C@@H]5CCCN5C(=O)[C@@H](NC(=O)OC)C(C)C)[nH]4)ccc32)[nH]1)C(C)C` (single isomer, unassigned) [Compound 10], the IC50 in the experiment on HCV replicon 3A came out at 0.233 nM; in the experiment on HCV replicon 2B (Hepatitis C virus, 72 h), 2.72 nM; in the experiment on HCV replicon 1A Y93H (setting [2]), 2.94 nM; with HCV replicon genotype 1A, 0.0035 nM.
In the case of `COC(=O)N[C@H](C(=O)N1CCC[C@H]1c1ncc(-c2ccc3c(c2)OC(c2cccc(OC)c2)C2=C3COc3cc(-c4cnc([C@@H]5CCCN5C(=O)[C@@H](NC(=O)OC)C(C)C)[nH]4)ccc32)[nH]1)C(C)C` (single isomer, unassigned) [Compound 11], the IC50 in the experiment on HCV replicon 1B (Hepatitis C virus, 72 h) was 0.006 nM; in the experiment with HCV replicon genotype 1A, 0.01 nM.
Turning to `COC(=O)N[C@H](C(=O)N1CCC[C@H]1c1ncc(-c2ccc3c(c2)OC(c2cccc(OC)c2)C2=C3COc3cc(-c4cnc([C@@H]5CCCN5C(=O)[C@@H](NC(=O)OC)C(C)C)[nH]4)ccc32)[nH]1)C(C)C` (single isomer, unassigned) [Compound 12], the IC50 with HCV replicon 3A is 1.82 nM; in the experiment on HCV replicon 1A Y93H (setting [1]), 2.44 nM; with HCV replicon genotype 1A, 0.0251 nM.
Regarding `COC(=O)N[C@H](C(=O)N1CCC[C@H]1c1ncc(-c2ccc3c(c2)OC(C)C2=C3COc3cc(-c4cnc([C@@H]5CCCN5C(=O)[C@@H](NC(=O)OC)C(C)C)[nH]4)ccc32)[nH]1)C(C)C` (single isomer, unassigned) [Compound 13], the IC50 stood at 1 nM in the experiment with HCV replicon 3A (Hepatitis C virus, 72 h); 12 nM with HCV replicon 2B; 23.8 nM in the experiment on HCV replicon 1A Y93H (setting [1]); 0.0344 nM in the experiment with HCV replicon genotype 1A.
As to `COC(=O)N[C@H](C(=O)N1CCC[C@H]1c1ncc(-c2ccc3c(c2)OC(C)C2=C3COc3cc(-c4cnc([C@@H]5CCCN5C(=O)[C@@H](NC(=O)OC)C(C)C)[nH]4)ccc32)[nH]1)C(C)C` (single isomer, unassigned) [Compound 14], the IC50 in the experiment with HCV replicon 2B was 24.5 nM; in the experiment with HCV replicon 1A Y93H (setting [1]), 31.8 nM; in the experiment with HCV replicon genotype 1A, 0.0122 nM.
`COC(=O)N[C@H](C(=O)N1CCC[C@H]1c1ncc(-c2ccc3c(c2)OC(C)C2=C3COc3cc(-c4cnc([C@@H]5CCCN5C(=O)[C@@H](NC(=O)OC)C(C)C)[nH]4)ccc32)[nH]1)C(C)C` (single isomer, unassigned) [Compound 15]: the figures for the half-maximal inhibitory concentration (IC50) in the experiment on HCV replicon 2B, in the experiment with HCV replicon 1A Y93H (setting [1]) and in the experiment with HCV replicon genotype 1A were 15.3 nM, 127 nM and 0.0229 nM, respectively.
For `COC(=O)N[C@H](C(=O)N1CCC[C@H]1c1ncc(-c2ccc3c(c2)OC(C2CC2)C2=C3COc3cc(-c4cnc([C@@H]5CCCN5C(=O)[C@@H](NC(=O)OC)C(C)C)[nH]4)ccc32)[nH]1)C(C)C` (single isomer, unassigned) [Compound 16], the IC50 came out at 3.74 nM with HCV replicon 3A (Hepatitis C virus, 72 h); 0.621 nM in the experiment on HCV replicon 2B (Hepatitis C virus, 72 h); 6.31 nM in the experiment with HCV replicon 1A Y93H (setting [1]); 0.0118 nM in the experiment with HCV replicon genotype 1A (Hepatitis C virus, 72 h).
Turning to `COC(=O)N[C@H](C(=O)N1CCC[C@H]1c1ncc(-c2ccc3c(c2)OC(C2CC2)C2=C3COc3cc(-c4cnc([C@@H]5CCCN5C(=O)[C@@H](NC(=O)OC)C(C)C)[nH]4)ccc32)[nH]1)C(C)C` (single isomer, unassigned) [Compound 17], the results for the concentration for half-maximal inhibition (IC50) in the experiment on HCV replicon 1A Y93H (setting [1]) and in the experiment with HCV replicon genotype 1A were 57.9 nM and 0.0115 nM, respectively.
In the case of `COC(=O)N[C@H](C(=O)N1CCC[C@H]1c1ncc(-c2ccc3c(c2)OC(C2CC2)C2=C3COc3cc(-c4cnc([C@@H]5CCCN5C(=O)[C@@H](NC(=O)OC)C(C)C)[nH]4)ccc32)[nH]1)C(C)C` (single isomer, unassigned) [Compound 18], the IC50 in the experiment with HCV replicon 1A Y93H (setting [1]) was determined as 14.3 nM; in the experiment on HCV replicon genotype 1A, 0.0081 nM.
For `COC(=O)N[C@H](C(=O)N1C[C@H](F)C[C@H]1c1ncc(-c2ccc3c(c2)OC(C2CC2)C2=C3COc3cc(-c4cnc([C@@H]5C[C@@H](F)CN5C(=O)[C@@H](NC(=O)OC)C(C)C)[nH]4)ccc32)[nH]1)C(C)C` (single isomer, unassigned) [Compound 19], the IC50 was 2.31 nM with HCV replicon 1A Y93H (setting [2]) and 0.0192 nM in the experiment on HCV replicon genotype 1A.
Turning to `COC(=O)N[C@H](C(=O)N1C[C@H](F)C[C@H]1c1ncc(-c2ccc3c(c2)OC(C2CC2)C2=C3COc3cc(-c4cnc([C@@H]5C[C@@H](F)CN5C(=O)[C@@H](NC(=O)OC)C(C)C)[nH]4)ccc32)[nH]1)C(C)C` (single isomer, unassigned) [Compound 20], the figures for the IC50 in the experiment with HCV replicon 1A Y93H (setting [1]) and with HCV replicon genotype 1A were 1.97 nM and 0.0866 nM, respectively.
`COC(=O)N[C@H](C(=O)N1C[C@H](F)C[C@H]1c1ncc(-c2ccc3c(c2)OC(C2CC2)C2=C3COc3cc(-c4cnc([C@@H]5C[C@@H](F)CN5C(=O)[C@@H](NC(=O)OC)C(C)C)[nH]4)ccc32)[nH]1)C(C)C` (single isomer, unassigned) [Compound 21]: the IC50 was determined as 2.17 nM with HCV replicon 1A Y93H (setting [1]) and 0.0156 nM with HCV replicon genotype 1A.
Consider `COC(=O)N[C@H](C(=O)N1C[C@H](F)C[C@H]1c1ncc(-c2ccc3c(c2)OCc2c-3c(=O)oc3cc(-c4cnc([C@@H]5C[C@@H](F)CN5C(=O)[C@@H](NC(=O)OC)C(C)C)[nH]4)ccc23)[nH]1)C(C)C` [Compound 5], for which the IC50 in the experiment with HCV replicon 1B (Hepatitis C virus, 72 h) came out at 0.0044 nM; in the experiment with HCV replicon 3A (Hepatitis C virus, 72 h), 1 nM; in the experiment with HCV replicon 2B (Hepatitis C virus, 72 h) it was 100 nM; in the experiment with HCV replicon 1A Y93H (setting [2]) it was 0.337 nM; with HCV replicon genotype 1A (Hepatitis C virus, 72 h), 0.0153 nM.
Consider `CC(C)(C)OC(=O)N1C[C@H](F)C[C@H]1c1ncc(-c2ccc3c(c2)OCc2c-3c(=O)oc3cc(-c4cnc([C@@H]5C[C@@H](F)CN5C(=O)OC(C)(C)C)[nH]4)ccc23)[nH]1` [Compound 6], for which the IC50 came out at 3080 nM in the experiment on HCV replicon 1A Y93H (setting [2]) and 975 nM with HCV replicon genotype 1A (Hepatitis C virus, 72 h).
Regarding `COC(=O)N[C@H](C(=O)N1CCC[C@H]1c1ncc(-c2ccc3c(c2)OC(c2ccccc2)C2=C3COc3cc(-c4cnc([C@@H]5CCCN5C(=O)[C@@H](NC(=O)OC)C(C)C)[nH]4)ccc32)[nH]1)C(C)C` (some centres unmarked) [Compound 7], the IC50 with HCV replicon 1B (Hepatitis C virus, 72 h) amounted to 0.002 nM; with HCV replicon 3A (Hepatitis C virus, 72 h), 0.062 nM; with HCV replicon 2B (Hepatitis C virus, 72 h) it was 1 nM; in the experiment with HCV replicon 1A Y93H (setting [2]) it was 4.29 nM; with HCV replicon genotype 1A (Hepatitis C virus, 72 h), 0.0076 nM.
For the molecule `COC(=O)N[C@H](C(=O)N1CCC[C@H]1c1ncc(-c2ccc3c(c2)OCC2=C3COc3cc(-c4cnc([C@@H]5C[C@H]6C[C@H]6N5C(=O)[C@@H](NC(=O)OC)C(C)C)[nH]4)ccc32)[nH]1)C(C)C` [Compound 22], the IC50 in the experiment on HCV replicon 3A (Hepatitis C virus, 72 h) stood at 2.02 nM; in the experiment on HCV replicon 2B (Hepatitis C virus, 72 h), 16 nM; with HCV replicon 1A Y93H (setting [2]) it was 2.01 nM; in the experiment on HCV replicon genotype 1A (Hepatitis C virus, 72 h) it was 0.0023 nM.

The values are drawn from patent US9828365B2, “Fused tetracyclic heterocyclic compounds and methods of use thereof for the treatment of viral diseases” (MERCK SHARP & DOHME CORP., priority 2013, dated 2017).
